Experimental data: patent US20230151025A1, “SUBSTITUTED THIAZOLOPYRIDINES, SALTS THEREOF AND THEIR USE AS HERBICIDALLY ACTIVE SUBSTANCES” (Bayer Aktiengesellschaft, priority 2020, published 2023)

What was measured:
Assay type in all cases: in vivo
[1] = test system: Alopecurus myosuroides (ALOMY); test: Herbicidal pre-emergence action (C), 320 g/ha; conditions: ca. 3 weeks
How it was run: (§1)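 Pre-emergence greenhouse test: visual damage rating at about 3 weeks relative to untreated plants, 100% meaning death and 0% no effect. Compounds, as wettable powders or emulsifiable concentrates with 0.5% additive, were applied at 320 g/ha (600 l water/ha) onto soil covering seeds sown in sandy loam.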

Veronica persica (VERPE) [2] = test: Herbicidal pre-emergence action (C), 320 g/ha; conditions: ca. 3 weeks
How it was run: as §1

Setaria viridis (SETVI) [3] = test: Herbicidal pre-emergence action (C), 320 g/ha; conditions: ca. 3 weeks
How it was run: as §1

Lolium rigidum (LOLRI) [4] = test: Herbicidal pre-emergence action (C), 320 g/ha; conditions: ca. 3 weeks
How it was run: as §1

[5] = test system: Echinochloa crus-galli (ECHCG); test: Herbicidal pre-emergence action (C), 320 g/ha; conditions: ca. 3 weeks
How it was run: as §1

[6] = test system: Amaranthus retroflexus (AMARE); test: Herbicidal pre-emergence action (C), 320 g/ha; conditions: ca. 3 weeks
How it was run: as §1

[7] = test system: Alopecurus myosuroides (ALOMY); test: Herbicidal post-emergence action (B), 1280 g/ha; conditions: rated visually after about 3 weeks vs untreated controls
How it was run: (§2)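 Percent activity is a visual score taken about 3 weeks after treatment, relative to untreated plants, where 100% means the plants died and 0% means no difference from controls. Plants were sprayed on green parts at the one-leaf stage with an aqueous suspension or emulsion containing 0.5% additive at 600 L/ha.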

Stellaria media (STEME) = test: Herbicidal post-emergence action (B), 1280 g/ha
How it was run: as §2

[8] = test system: Digitaria sanguinalis (DIGSA); test: Herbicidal post-emergence action (B), 1280 g/ha; conditions: rated visually after about 3 weeks vs untreated controls
How it was run: as §2

[9] = test system: Kochia scoparia (KCHSC; Bassia scoparia); test: Herbicidal post-emergence action (B), 1280 g/ha
How it was run: as §2

Veronica persica (VERPE) [10] = test: Herbicidal post-emergence action (B), 1280 g/ha
How it was run: as §2

Setaria viridis (SETVI) [11] = test: Herbicidal post-emergence action (B), 1280 g/ha; conditions: rated visually after about 3 weeks vs untreated controls
How it was run: as §2

Lolium rigidum (LOLRI) [12] = test: Herbicidal post-emergence action (B), 1280 g/ha; conditions: one-leaf stage, rated after about 3 weeks vs untreated controls, 100% activity = the plants have died, 0% = like control plants
How it was run: as §2

[13] = test system: Abutilon theophrasti (ABUTH); test: Herbicidal post-emergence action (B), 1280 g/ha; conditions: rated visually after about 3 weeks vs untreated controls
How it was run: as §2

[14] = test system: Echinochloa crus-galli (ECHCG); test: Herbicidal post-emergence action (B), 1280 g/ha; conditions: rated visually after about 3 weeks vs untreated controls
How it was run: as §2

Poa annua (POAAN) [15] = test: Herbicidal post-emergence action (B), 1280 g/ha; conditions: rated visually after about 3 weeks vs untreated controls
How it was run: as §2

[16] = test system: Amaranthus retroflexus (AMARE); test: Herbicidal post-emergence action (B), 1280 g/ha; conditions: rated visually after about 3 weeks vs untreated controls
How it was run: as §2

[17] = test system: Digitaria sanguinalis (DIGSA); test: Herbicidal pre-emergence action (C), 320 g/ha; conditions: ca. 3 weeks
How it was run: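 Weed and crop seeds sown in sandy loam; WP or EC formulations applied pre-emergence to the soil surface as aqueous suspension/emulsion with 0.5% additive at 600 l water/ha. Greenhouse-grown under optimum conditions; damage visually scored after ca. 3 weeks versus untreated controls (0% = as control, 100% = plants dead).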

[18] = test system: Digitaria sanguinalis (DIGSA); test: Herbicidal pre-emergence action (A), 1280 g/ha; conditions: visual grading after ca. 3 weeks vs untreated controls, 100% = plants have died off, 0% = as control plants
How it was run: (§3)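 Pre-emergence soil-surface spray, 600 l/ha water, 0.5% additive, WP or EC formulation. Sandy loam, double sowing per pot, greenhouse under optimum growth. Visual % damage at ~3 wk vs untreated; 100% = plants died off.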

Veronica persica (VERPE) [19] = test: Herbicidal pre-emergence action (A), 1280 g/ha; conditions: visual grading after ca. 3 weeks vs untreated controls
How it was run: as §3

Setaria viridis (SETVI) [20] = test: Herbicidal pre-emergence action (A), 1280 g/ha; conditions: visual grading after ca. 3 weeks vs untreated controls
How it was run: as §3

[21] = test system: Echinochloa crus-galli (ECHCG); test: Herbicidal pre-emergence action (A), 1280 g/ha; conditions: visual grading after ca. 3 weeks vs untreated controls, 100% = plants have died off, 0% = as control plants
How it was run: as §3

Poa annua (POAAN) [22] = test: Herbicidal pre-emergence action (A), 1280 g/ha; conditions: visual grading after ca. 3 weeks vs untreated controls, 100% = plants have died off, 0% = as control plants
How it was run: as §3

[23] = test system: Amaranthus retroflexus (AMARE); test: Herbicidal pre-emergence action (A), 1280 g/ha; conditions: visual grading after ca. 3 weeks vs untreated controls
How it was run: as §3

[24] = test system: Abutilon theophrasti (ABUTH); test: Herbicidal pre-emergence action (A), 1280 g/ha; conditions: visual grading after ca. 3 weeks vs untreated controls, 100% = plants have died off, 0% = as control plants
How it was run: as §3

| SMILES | herbicidal effect ALOMY [1] | herbicidal effect VERPE (Veronica persica (VERPE) [2]) | herbicidal effect SETVI (Setaria viridis (SETVI) [3]) | herbicidal effect LOLRI (Lolium rigidum (LOLRI) [4]) | herbicidal effect ECHCG [5] | herbicidal effect AMARE [6] | herbicidal activity ALOMY [7] | herbicidal effect STEME (Stellaria media (STEME)) | herbicidal effect KCHSC [9] | herbicidal effect VERPE (Veronica persica (VERPE) [10]) | herbicidal activity SETVI (Setaria viridis (SETVI) [11]) | LOLRI, activity rated visually (%) (Lolium rigidum (LOLRI) [12]) | herbicidal activity ABUTH [13] | herbicidal activity ECHCG [14] | herbicidal activity POAAN (Poa annua (POAAN) [15]) | herbicidal activity AMARE [16] | herbicidal effect DIGSA [17] | herbicidal effect SETVI (Setaria viridis (SETVI) [20]) | ECHCG, herbicidal effect in percent (%) [21] | POAAN, herbicidal effect in percent (%) (Poa annua (POAAN) [22]) | other results |
| --- | --- | --- | --- | --- | --- | --- | --- | --- | --- | --- | --- | --- | --- | --- | --- | --- | --- | --- | --- | --- | --- |
| CCc1cc2scnc2nc1-c1ccc(F)cc1F [Example I-030] | 100% | 90% | 100% | 100% | 100% | 90% | 90% | 90% | 100% | 90% | 90% | 90% | 100% | 100% | 100% | 100% | 100% | 100% | 100% | 100% | herbicidal activity DIGSA [8]: 100%; DIGSA, herbicidal effect in percent (%) [18]: 90%; herbicidal effect VERPE (Veronica persica (VERPE) [19]): 100%; herbicidal effect AMARE [23]: 90% |
| Fc1ccccc1-c1ccc2scnc2n1 [Example I-036, 5-(2-fluorophenyl)thiazolo[4,5-b]pyridine] | 100% | 90% | 100% | 100% | 100% | 100% |  | 100% |  |  | 100% | 100% |  | 100% | 100% | 100% | 100% | 100% | 100% | 100% | herbicidal effect AMARE [23]: 90% |
| Cc1cc2scnc2nc1-c1sccc1Cl [Example I-137] | 100% | 90% | 100% | 100% | 100% | 90% | 100% | 100% | 90% | 100% | 100% | 90% | 90% | 100% | 100% | 100% | 100% | 100% | 100% | 100% | herbicidal activity DIGSA [8]: 100%; DIGSA, herbicidal effect in percent (%) [18]: 100%; herbicidal effect VERPE (Veronica persica (VERPE) [19]): 100%; ABUTH, herbicidal effect in percent (%) [24]: 100%; herbicidal effect AMARE [23]: 100% |
| Fc1ccccc1-c1nc2ncsc2cc1Cl [Example I-017] | 100% | 90% | 100% | 100% | 100% | 90% | 100% | 100% | 90% | 90% | 100% | 100% | 90% | 100% | 100% | 90% | 100% | 100% | 100% | 100% | herbicidal activity DIGSA [8]: 100%; DIGSA, herbicidal effect in percent (%) [18]: 100%; herbicidal effect VERPE (Veronica persica (VERPE) [19]): 90%; ABUTH, herbicidal effect in percent (%) [24]: 90%; herbicidal effect AMARE [23]: 100% |
| Cc1cc2scnc2nc1-c1ccccc1 [Example I-041] | 100% | 90% | 100% | 100% | 100% | 90% | 100% | 100% | 100% | 100% | 100% | 100% | 100% | 100% | 100% | 100% | 100% | 100% | 100% | 100% | herbicidal activity DIGSA [8]: 100%; DIGSA, herbicidal effect in percent (%) [18]: 100%; herbicidal effect VERPE (Veronica persica (VERPE) [19]): 100%; ABUTH, herbicidal effect in percent (%) [24]: 90%; herbicidal effect AMARE [23]: 100% |
| Cc1cc2scnc2nc1-c1ccccc1Cl [Example I-045] | 100% | 90% | 100% | 100% | 100% | 90% | 100% | 100% | 90% | 90% | 100% | 90% | 90% | 100% | 100% | 90% | 100% | 100% | 100% | 100% | DIGSA, herbicidal effect in percent (%) [18]: 100%; herbicidal effect VERPE (Veronica persica (VERPE) [19]): 100%; ABUTH, herbicidal effect in percent (%) [24]: 90%; herbicidal effect AMARE [23]: 100% |
| CCc1cc2scnc2nc1-c1ccccc1 [Example I-051] | 100% | 90% | 100% | 100% | 100% | 90% | 100% | 100% | 90% | 100% | 100% | 100% | 90% | 100% | 100% | 100% | 100% | 100% | 100% | 100% | herbicidal activity DIGSA [8]: 100%; DIGSA, herbicidal effect in percent (%) [18]: 100%; herbicidal effect VERPE (Veronica persica (VERPE) [19]): 90%; ABUTH, herbicidal effect in percent (%) [24]: 90% |
